In experiment [1] the target is Muscarinic acetylcholine receptor.
Description: Inhibition of [3H]-(R)-QNB binding to muscarinic receptors of rat brain membranes.
The species entered for experiment [2] is Rattus norvegicus.
Description: Ability to stimulate phosphoinositol metabolism was examined in the rat cerebral cortex at 100 uM
Experiment [3] is filed under the species Rattus norvegicus. Nature of the experiment: Ability to stimulate phosphoinisitol metabolism was examined in the rat hippocampus represented as % maximal stimulation. The format is functional.
The species named for experiment [4] is Rattus norvegicus. Nature of the experiment: cells. Particulars: Hippocampus.
Description: Effective concentration of compound that can stimulate phosphoinositol metabolism in rat hippocampus
The species named for experiment [5] is Rattus norvegicus. Nature of the experiment: cells. Conditions: Hippocampus. The source holds these as a separate data set.
Description: Inhibition of the response (stimulation of phosphoinositol metabolism in rat hippocampus) to 10 uM of compound by AF-DX 116
For experiment [6], the species on record is Rattus norvegicus. Kind of experiment: cells. Particulars: Hippocampus. This is another data set of the same source.
Description: Inhibition of the response (stimulation of phosphoinositol metabolism in rat hippocampus) to 10 uM of compound by pirenzepine
For experiment [7], the species on record is Rattus norvegicus. Nature of the experiment: cells. Particulars: Hippocampus. The source holds these as a separate data set.
Description: Inhibition of the response (stimulation of phosphoinositol metabolism in rat hippocampus) to 10 uM of compound by p-F-hexahydrosiladifenidol
Experiment [8] is filed under the species Rattus norvegicus. Nature of the experiment: Ability to stimulate phosphoinisitol metabolism was examined in the rat hippocampus. The format is functional.

As usually defined, the IC50 is the concentration that gives 50% inhibition. Higher therefore signals lower potency. Regarding `Cc1noc(C2=CCCN(C)C2)n1`, in experiment [1], the IC50 came out at 690 nM. Moreover, in the experiment listed under Rattus norvegicus [2], the PI amounted to 50%.

In the case of `CCCCCCc1noc(C2CN=CNC2)n1.O=C(O)C(F)(F)F` (configuration not stated), the IC50 in experiment [1] came to 2300 nM. In addition, the PI in the experiment listed under Rattus norvegicus [2] was 4.3%.

Take `CCCCCc1noc(C2CN=CNC2)n1.O=C(O)C(F)(F)F` (configuration not stated): in experiment [1], the IC50 came to 560 nM. The molecule further displayed a PI in the experiment listed under Rattus norvegicus [2] of 29%.

For the molecule `CCCCCCCc1noc(C2CN=CNC2)n1.O=C(O)C(F)(F)F` (configuration not stated), in experiment [1], the IC50 turned out to be 2300 nM. This molecule also gave a PI in the experiment filed under Rattus norvegicus [2] of 34%.

Consider `CCCc1noc(C2CN=CNC2)n1.O=C(O)C(F)(F)F` (configuration not stated), for which, in experiment [1], the IC50 came out at 550 nM. In the experiment listed under Rattus norvegicus [2], this molecule yielded a PI of 79%.

`CCCCCCCCc1noc(C2CN=CNC2)n1.O=C(O)C(F)(F)F` (configuration not stated) had an IC50 in experiment [1] of 530 nM. For the same molecule, the PI in the experiment listed under Rattus norvegicus [2] was found to be 28%.

In general, EC50 refers to the midpoint of the concentration-response curve. High values mean lower potency in that assay, low ones higher potency in that assay. Turning to `Cc1noc(C2CN=CNC2)n1.O=C(O)C(F)(F)F` (configuration not stated), the Max stimulation in the experiment listed under Rattus norvegicus [3] was 510%. This molecule yielded a PI in the experiment listed under Rattus norvegicus [2] of 700%. In the experiment filed under Rattus norvegicus [4], a half-maximal effect (EC50) was put at 5200 nM. The results for the IC50 in the experiment filed under Rattus norvegicus [5], in the experiment listed under Rattus norvegicus [6] and in the experiment filed under Rattus norvegicus [7] were 1700 nM, 38 nM and 1200 nM, respectively.

`Cc1noc(C2CN3CCC2CC3)n1` (configuration not stated) gave an IC50 in experiment [1] of 350 nM. Moreover, the PI in the experiment filed under Rattus norvegicus [2] was determined as 100%.

As for `CCc1noc(C2CN=CNC2)n1.O=C(O)C(F)(F)F` (configuration not stated), the PI in the experiment filed under Rattus norvegicus [2] worked out at 130%.

Take `CCCCc1noc(C2CN=CNC2)n1.O=C(O)C(F)(F)F` (configuration not stated): in experiment [1], the IC50 amounted to 490 nM. In the experiment filed under Rattus norvegicus [2], this molecule gave a PI of 61%.

In the experiment filed under Rattus norvegicus [8], `CC(=O)OC1CN2CCC1CC2` (configuration not stated) [ACECLIDINE] displayed a Max stimulation of 390%. The PI in the experiment filed under Rattus norvegicus [2] turned out to be 80%. In the experiment listed under Rattus norvegicus [7], this molecule registered an IC50 of 23 nM.

`C[N+](C)(C)CCOC(N)=O.[Cl-]` [CARBACHOL] gave a PI in the experiment listed under Rattus norvegicus [2] of 470%.
